Here are results for seven molecules from US11124496B2, “Imidazolidine compounds” (Eli Lilly and Company, priority 2017, dated 2021).

In experiment [1] the target is human ASK1 (Homo sapiens (Human), UniProt Q99683). Briefly: ASK1 autophosphorylation (Thr838) assay in HEK293 cells overexpressing human ASK1. Conditions: for IC50: H2O2-stimulated (1 mM, 10 minutes) ASK1 autophosphorylation at Thr838, HEK293 cells, Mean±Standard Deviation, read-out: HEK pASK1 IC50; for Efficacy (%): HEK pASK1 assay, standard ASK1 inhibitor = 100% inhibition, DMSO vehicle = 0%. The class given is cell-based.
Chain of human ASK1 (Q99683 whole entry): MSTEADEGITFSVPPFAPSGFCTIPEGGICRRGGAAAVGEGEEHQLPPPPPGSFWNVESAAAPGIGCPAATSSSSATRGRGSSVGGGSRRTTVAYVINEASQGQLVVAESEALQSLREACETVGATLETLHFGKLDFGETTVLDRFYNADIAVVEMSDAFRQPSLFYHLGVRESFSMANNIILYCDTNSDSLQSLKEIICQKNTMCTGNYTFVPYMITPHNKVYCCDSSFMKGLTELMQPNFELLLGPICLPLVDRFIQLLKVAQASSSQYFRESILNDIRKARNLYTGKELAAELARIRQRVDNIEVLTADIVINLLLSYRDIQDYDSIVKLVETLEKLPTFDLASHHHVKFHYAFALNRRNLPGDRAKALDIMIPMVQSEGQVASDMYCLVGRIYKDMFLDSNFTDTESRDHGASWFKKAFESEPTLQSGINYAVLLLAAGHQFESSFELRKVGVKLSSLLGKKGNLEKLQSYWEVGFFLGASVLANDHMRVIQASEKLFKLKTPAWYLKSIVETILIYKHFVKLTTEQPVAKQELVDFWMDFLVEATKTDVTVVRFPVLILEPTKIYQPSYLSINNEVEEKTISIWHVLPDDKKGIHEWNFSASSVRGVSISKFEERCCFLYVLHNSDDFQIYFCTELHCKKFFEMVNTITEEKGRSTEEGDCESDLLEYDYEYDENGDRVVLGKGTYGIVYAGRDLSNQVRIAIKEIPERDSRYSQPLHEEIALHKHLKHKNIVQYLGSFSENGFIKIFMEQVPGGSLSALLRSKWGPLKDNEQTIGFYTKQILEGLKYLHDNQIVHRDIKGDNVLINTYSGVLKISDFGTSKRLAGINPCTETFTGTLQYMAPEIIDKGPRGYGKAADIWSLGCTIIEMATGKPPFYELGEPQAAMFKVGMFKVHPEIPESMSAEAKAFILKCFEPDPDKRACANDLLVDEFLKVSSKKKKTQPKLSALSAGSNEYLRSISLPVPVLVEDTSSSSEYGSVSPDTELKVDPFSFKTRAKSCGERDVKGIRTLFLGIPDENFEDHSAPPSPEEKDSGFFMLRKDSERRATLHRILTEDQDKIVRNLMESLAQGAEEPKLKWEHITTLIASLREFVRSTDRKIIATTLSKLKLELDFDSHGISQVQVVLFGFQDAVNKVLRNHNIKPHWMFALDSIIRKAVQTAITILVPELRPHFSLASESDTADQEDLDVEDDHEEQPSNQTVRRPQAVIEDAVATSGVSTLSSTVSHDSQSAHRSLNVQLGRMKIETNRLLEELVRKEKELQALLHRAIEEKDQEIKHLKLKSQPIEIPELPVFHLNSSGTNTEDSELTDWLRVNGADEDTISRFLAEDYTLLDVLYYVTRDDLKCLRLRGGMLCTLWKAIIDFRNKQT

Experiment [2] has as its target recombinant human ASK1 (hASK1) catalytic domain (Homo sapiens (Human), UniProt Q99683). In words: ASK1 enzymatic assay (ADP-Glo Kinase Assay). The following applies: for IC50: hASK1 0.25 nM, MKK6 300 nM, ATP 100 uM, Mean±Standard Deviation; for Efficacy (%): hASK1 enzymatic assay, standard ASK1 inhibitor = 100% inhibition, DMSO vehicle = 0%. The class given is biochemical. The source says:
ASK1 Inhibitor Effect Determined by ASK1 Enzymatic Assay
The purpose of this assay is to determine the effect of ASK1 inhibitors on the production of ADP by ASK1. The recombinant human ASK1 (hASK1) catalytic domain tagged with Glutathione S-transferase is used, and histidine-tagged full-length human MAP kinase kinase 6 (MKK6) and ATP are the substrate and cofactor, respectively.
The assay is done using an ADP-Glo™ Kinase Assay Kit (Promega, Catalog #V9102) according to the manufacturer's protocol with the following modifications. Briefly, hASK1 (0.25 nM) and MKK6 (300 nM) in a buffer (10 mM MOPS pH 7.0; 10 mM Mg-Acetate; 1 mM DTT; 0.025% NP-40; 0.05% BSA; 1.5% glycerol) are incubated with ASK1 inhibitors at varying concentrations ranging from 10.00 uM to 0.17 nM for 15 minutes, followed by incubation with ATP (100 uM) for 30 minutes at room temperature. ADP-Glo™ Reagent is added to terminate the kinase reaction and deplete the remaining ATP. The Kinase Detection Reagent is then added to convert ADP to ATP. The newly synthesized ATP is measured using a luciferase/luciferin reaction, and the luminescence determined by Envision (PerkinElmer). The luminescence intensities are analyzed by GeneData, and fit to a 4 parameter dose response-inhibitor logistics curve to determine IC50 values, using the effects of 5-(4-cyclopropyl-1H-imidazol-1-yl)-2-fluoro-4-methyl-N-{6-[4-(propan-2-yl)-4H-1,2,4-triazol-3-yl]pyridin-2-yl}benzamide as a standard and DMSO vehicle for 100% and 0% inhibition, respectively.
On the technique in general: ADP-Glo turns the ADP formed in a reaction into a luminescent signal.

The term IC50 denotes the concentration that inhibits the measured activity by half.

Chain of recombinant human ASK1 (hASK1) catalytic domain (Q99683 680-938): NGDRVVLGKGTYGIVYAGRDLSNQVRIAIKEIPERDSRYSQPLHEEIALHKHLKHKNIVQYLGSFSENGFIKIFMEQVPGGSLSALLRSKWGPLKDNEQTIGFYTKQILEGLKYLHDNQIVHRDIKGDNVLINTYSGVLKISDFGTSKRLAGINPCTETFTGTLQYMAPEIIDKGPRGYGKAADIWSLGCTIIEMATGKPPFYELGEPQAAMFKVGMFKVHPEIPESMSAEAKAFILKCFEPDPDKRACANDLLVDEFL

As for `CC(C)n1cnnc1-c1cccc(N2CCNC2=O)n1` [Example 5, 1-(6-(4-Isopropyl-4H-1,2,4-triazol-3-yl)pyridin-2-yl)imidazolidin-2-one], the IC50 in experiment [1] amounted to 3770 nM; in experiment [2] it was 64.4 ± 58.5 nM. Besides, the “Efficacy (%)” value in experiment [1] and in experiment [2] was 100% throughout.
`CC(C)n1cnnc1-c1cccc(N2CCN(CCc3cccnc3)C2=O)n1` [Example 1, 1-[6-(4-Isopropyl-1,2,4-triazol-3-yl)-2-pyridyl]-3-[2-(3-pyridyl)ethyl]imidazolidin-2-one]: in experiment [1], the IC50 was 1400 nM and the “Efficacy (%)” value was 80.5%. Besides, in experiment [2], the concentration for half-maximal inhibition (IC50) came to 36 ± 6.25 nM and the “Efficacy (%)” value was determined as 100%.
Turning to `CC(C)n1cnnc1-c1cccc(N2CCN(CCc3cnc(C4CC4)nc3)C2=O)n1` [Example 4, 1-[2-(2-Cyclopropylpyrimidin-5-yl)ethyl]-3-[6-(4-isopropyl-1,2,4-triazol-3-yl)-2-pyridyl]imidazolidin-2-one], in experiment [1], the IC50 was found to be 735 nM and the “Efficacy (%)” value is 107%. Besides, in experiment [2], the concentration for half-maximal inhibition (IC50) was 13.7 ± 6.57 nM and the “Efficacy (%)” value amounted to 100%.
Take `CC(C)n1cnnc1-c1cccc(N2CCN([C@H](C)Cn3cnc(C4CC4)c3)C2=O)n1` [Example 2, 1-[(1R)-2-(4-Cyclopropylimidazol-1-yl)-1-methyl-ethyl]-3-[6-(4-isopropyl-1,2,4-triazol-3-yl)-2-pyridyl]imidazolidin-2-one]: in experiment [1], the IC50 came to 886 ± 65.4 nM and the “Efficacy (%)” value is given as 96.0%. Moreover, in experiment [2], the IC50 was 14 ± 2.61 nM and the “Efficacy (%)” value was 100%.
With `Cc1ncc(CCN2CCN(c3cccc(-c4nncn4C(C)C)n3)C2=O)cn1` [Example 6, 1-[6-(4-Isopropyl-1,2,4-triazol-3-yl)-2-pyridyl]-3-[2-(2-methylpyrimidin-5-yl)ethyl]imidazolidin-2-one], in experiment [2], the concentration for half-maximal inhibition (IC50) is 88.3 ± 21.8 nM and the “Efficacy (%)” value worked out at 100%.
For the molecule `Cc1ccc(CCN2CCN(c3cccc(-c4nncn4C(C)C)n3)C2=O)cn1` [Example 7, 1-[6-(4-Isopropyl-1,2,4-triazol-3-yl)-2-pyridyl]-3-[2-(6-methyl-3-pyridyl)ethyl]imidazolidin-2-one], the IC50 in experiment [1] is 520 nM; in experiment [2] it was 16.6 ± 3.16 nM. For the same molecule, the “Efficacy (%)” value in experiment [1] and in experiment [2] was 100% each time.
For `CC(C)n1cnnc1-c1cccc(N2CCN(CCn3cnc(C4CC4)c3)C2=O)n1` [Example 3, 1-[2-(4-Cyclopropylimidazol-1-yl)ethyl]-3-[6-(4-isopropyl-1,2,4-triazol-3-yl)-2-pyridyl]imidazolidin-2-one], the values for the IC50 in experiment [1] and in experiment [2] were 1130 ± 300 nM and 10.8 ± 2.01 nM, respectively. The “Efficacy (%)” value in experiment [1] is given as 101%; in experiment [2], 100%.
